The experiment addresses T1, Trace amine-associated receptor 1 (Homo sapiens, UniProt Q96RJ0).
T1 sequence (Q96RJ0 whole entry): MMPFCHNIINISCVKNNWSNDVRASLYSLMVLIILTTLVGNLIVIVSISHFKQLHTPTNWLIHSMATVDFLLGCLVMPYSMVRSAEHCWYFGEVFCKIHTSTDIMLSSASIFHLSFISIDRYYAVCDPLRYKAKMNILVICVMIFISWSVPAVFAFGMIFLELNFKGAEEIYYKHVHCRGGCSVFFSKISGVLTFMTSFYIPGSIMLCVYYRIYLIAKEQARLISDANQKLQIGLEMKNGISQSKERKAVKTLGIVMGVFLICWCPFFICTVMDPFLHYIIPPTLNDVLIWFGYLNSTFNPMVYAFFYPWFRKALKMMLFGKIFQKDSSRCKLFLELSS

From BindingDB's records for doi:10.1073/pnas.151105198 (Synaptic Pharmaceutical, 2001) come the findings set out here.

A word on the Ki: it is the dissociation constant of the complex between target and ligand, obtained from inhibition or displacement. Read a high Ki as a looser hold on the target.

The structures appear in SMILES notation.

`NCCc1ccc(O)cc1`: the Ki was 34 nM. In the case of `CN1CCN(C2Cc3ccccc3Sc3ccc(Cl)cc32)CC1` (stereo unspecified) [1-(8-chloro-10,11-dihydrodibenzo[b,f]thiepin-10-yl)-4-methylpiperazine], the Ki amounted to 493 nM. Then `NCCc1c[nH]c2ccccc12` [1H-indole-3-ethanamine], with 1080 nM; and `OCCc1ccccc1` [NSC_6054], with 8 nM. `NCC(O)c1ccc(O)c(O)c1` (stereo not drawn) [Noradrenaline,(+)] showed a Ki greater than 10000 nM.

In turn, `NCCc1c[nH]cn1` [[3H]histamine] showed a Ki of 3110 nM.
